Assay results from US11697667B2, “Salts and polymorphs of cethromycin for the treatment of disease” (AliquantumRx, Inc., priority 2019, dated 2023).
Values joined by “and” are separate entries in the source; they are usually repeats but may differ in a detail not shown here. Equal values may be shown once.

Key:
[1] = Kinetic solubility (2 hours) in SGF media; type: physicochemical; details: 2 hr (Table 32)
Description: Sufficient sample was suspended in 0.25 ml media for a maximum anticipated concentration of ca. 40 mg/ml of the free form of the compound. The resulting suspensions were then shaken at 25° C./750 rpm for 2 hours. After equilibration, the appearance was noted, and the pH of the saturated solution was measured. Samples were then filtered through a glass ‘C’ fibre filter (particle retention 1.2 μm). All the samples were diluted 100 times with SGF media. […] Different volumes of the standard and diluted sample solutions were injected.

[2] = PXRD of residues undissolved after solubility analysis; type: physicochemical
Description: PXRD analysis was performed on residues that remained undissolved after the solubility analysis to check for changes in solid form.

[3] = Thermodynamic solubility (24 hours) in DI water; type: physicochemical; details: DI Water, 24 hr (Table 34)
Description: (§1) Sufficient sample was suspended in 0.25 ml media for a maximum anticipated concentration of ca. 40 mg/ml of the free form of the compound. The resulting suspensions were then shaken at 25° C./750 rpm for 24 hours. The pH of samples suspended in PBS pH 7.4 were checked and adjusted if necessary (>0.05 change in pH) after 2 hours. After equilibration, the appearance was noted and the pH of the saturated solution was measured. Samples were then filtered through a glass ‘C’ fibre filter (Particle retention 1.2 μm). Samples suspended in PBS pH 7.4 buffer was diluted 10 times with PBS buffer and samples suspended in DI water diluted 100 times with DI water.

[4] = Thermodynamic solubility (24 hours) in PBS media; type: physicochemical; details: PBS pH 7.4, 24 hr (Table 33)
Description: as §1

malaria = test: Mouse malaria blood stage high parasitemia parasite killing model; type: in vivo, mice
Description: Additionally or alternatively, mouse malaria blood stage activity may be tested in a high parasitemia parasite killing model (n=5 mice/dose) to assess rate of killing and minimal dose and duration for cure as disclosed above and/or according to methods known in the art. Quantifiable endpoints may include measured activity against malaria.

[5] = system: malaria (infective sporozoites); test: Liver stage activity in murine malaria model; type: in vivo, mice
Description: Quantifiable endpoints may include measured activity against malaria.

[6] = Variable-temperature PXRD / thermal behaviour of acetate pattern 1; type: physicochemical; details: after VT PXRD
Description: For variable temperature (VT-XRPD) experiments samples were mounted on an Anton Paar DHS 900 hot stage at ambient conditions. The sample was then heated to the appropriate temperature at 20° C./min and subsequently held isothermally for 1 minute before data collection. Samples were prepared and analysed on a silicon wafer mounted to the hot stage using a heat-conducting paste.
In order to investigate this further a VT PXRD experiment on this material was carried out. On heating, the original white powder converts first to a translucent solid by 130° C., then to a translucent white solid by 170° C. This conversion is accompanied by loss of the original diffraction pattern is lost and appearance of a new diffraction pattern. […] The material is stable at RT.

[7] = Storage stability at 40° C./75% RH and 25° C./97% RH (PXRD, HPLC, NMR); type: physicochemical; details: 7 days
Description: Studies were performed on various cethromycin forms in order to determine stability for storage.

Compound: CCC1OC(=O)C(C)C(=O)C(C)C(OC2OC(C)CC(N(C)C)C2O)C(C)(OCC=Cc2cnc3ccccc3c2)CC(C)C(=O)C(C)C2NC(=O)OC12C (stereo not shown) [Free form]
- Avg Sol'y [1]: 25 mg/mL
- Sol'y [1]: 24 mg/mL
- pH at 2 hrs [1]: 7.6 and 7.5
- PXRD of Residues ([2]; PBS pH 7.4, 24 hr): freebase pattern 2
- PXRD of Residues ([2]; SGF media, 2 hr): amorphous
- Avg Sol'y [3]: 0.41 mg/mL
- Sol'y [3]: 0.47 mg/mL and 0.35 mg/mL
- pH at 24 hrs [3]: 8.1
- Avg Sol'y [4]: 2.0 mg/mL
- Sol'y [4]: 2.0 mg/mL and 1.9 mg/mL
- pH at 24 hrs [4]: 6.8

Compound: CCC1OC(=O)C(C)C(=O)C(C)C(OC2OC(C)CC(NC)C2O)C(C)(OCC=Cc2cnc3ccccc3c2)CC(C)C(=O)C(C)C2NC(=O)OC12C (stereo not shown) [M1 metabolite, N-desmethyl cethromycin]
- Blood stage activity relative to the activity of cethromycin chloride (malaria): less than 30%
- Liver stage activity relative to the activity of cethromycin chloride [5]: less than 30%

Compound: CC[C@H]1OC(=O)[C@H](C)C(=O)[C@H](C)[C@@H](O[C@@H]2O[C@H](C)C[C@H](N(C)C)[C@H]2O)[C@](C)(OCC=Cc2cnc3ccccc3c2)C[C@@H](C)C(=O)[C@H](C)[C@H]2NC(=O)O[C@@]21C [freebase pattern 1]
- Stability of the form at RT [6]: stable at RT
- HPLC Purity after storage at 40° C./75% RH for 7 days [7]: 96.6%
- PXRD after storage at 40° C./75% RH for 7 days ([7]; made from acetate pattern 1 by heating to 150° C.): freebase pattern 1
